# Experimental data: patent publication US20160185797A1, “ALKYNYL ALCOHOLS AND METHODS OF USE” (Genentech, Inc., priority 2013, published 2016)
# Tests used:
# [1] = system: p52 (NF-kB2) nuclear translocation in HeLa cells; test: p52 (NF-kB2) nuclear translocation assay in HeLa cells, anti-lymphotoxin beta receptor antibody stimulated (non-classical NF-kB signaling), high content imaging; format: cell-based; details: Homo sapiens, 100 ng/mL anti-lymphotoxin beta receptor antibody for 5 hours, read-out: p52 HeLa Transloc Assay (IC50)
# In short: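 HeLa cells in 10% FBS medium were treated with compound (0.2% DMSO final) and stimulated with 100 ng/mL anti-lymphotoxin beta receptor antibody for 5 h. Fixed cells were immunostained for p52 and imaged with DRAQ5 nuclear stain. Translocation is the nuclear to cytoplasmic intensity ratio, […].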
# [2] = system: REL-A (p65) nuclear translocation in HeLa cells; test: REL-A (p65) nuclear translocation assay in HeLa cells, TNF-α stimulated (classical NF-kB signaling), high content imaging; format: cell-based; details: Homo sapiens, HeLa, compound 4.5 h, then 10 ng/mL TNF-α for 30 minutes, read-out: REL-A HeLa Transloc Assay (IC50)
# In short: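 HeLa cells in medium with 10% fetal bovine serum were exposed to compounds (0.2% DMSO final) for 4.5 hours, then stimulated with 10 ng/mL TNF-α for 30 minutes. After fixation in 4% paraformaldehyde and permeabilization with 0.1% Triton X-100, cells were stained with 400 ng/mL anti-REL-A (p65) antibody, an Alexa488 secondary and DRAQ5. Opera imaging quantified the nuclear-to-cytoplasmic signal ratio to give IC50.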
# [3] = molecular target: T1, nuclear factor-kappa B (NF-kB)-inducing kinase (NIK) (Homo sapiens, UniProt Q99558); test: NIK enzyme inhibition assay (Transcreener ADP fluorescence polarization, NIK ADP-FP); format: biochemical
# T1 construct: made in house; host or cells: baculovirus-infected insect cells
# T1 sequence (Q99558 whole entry): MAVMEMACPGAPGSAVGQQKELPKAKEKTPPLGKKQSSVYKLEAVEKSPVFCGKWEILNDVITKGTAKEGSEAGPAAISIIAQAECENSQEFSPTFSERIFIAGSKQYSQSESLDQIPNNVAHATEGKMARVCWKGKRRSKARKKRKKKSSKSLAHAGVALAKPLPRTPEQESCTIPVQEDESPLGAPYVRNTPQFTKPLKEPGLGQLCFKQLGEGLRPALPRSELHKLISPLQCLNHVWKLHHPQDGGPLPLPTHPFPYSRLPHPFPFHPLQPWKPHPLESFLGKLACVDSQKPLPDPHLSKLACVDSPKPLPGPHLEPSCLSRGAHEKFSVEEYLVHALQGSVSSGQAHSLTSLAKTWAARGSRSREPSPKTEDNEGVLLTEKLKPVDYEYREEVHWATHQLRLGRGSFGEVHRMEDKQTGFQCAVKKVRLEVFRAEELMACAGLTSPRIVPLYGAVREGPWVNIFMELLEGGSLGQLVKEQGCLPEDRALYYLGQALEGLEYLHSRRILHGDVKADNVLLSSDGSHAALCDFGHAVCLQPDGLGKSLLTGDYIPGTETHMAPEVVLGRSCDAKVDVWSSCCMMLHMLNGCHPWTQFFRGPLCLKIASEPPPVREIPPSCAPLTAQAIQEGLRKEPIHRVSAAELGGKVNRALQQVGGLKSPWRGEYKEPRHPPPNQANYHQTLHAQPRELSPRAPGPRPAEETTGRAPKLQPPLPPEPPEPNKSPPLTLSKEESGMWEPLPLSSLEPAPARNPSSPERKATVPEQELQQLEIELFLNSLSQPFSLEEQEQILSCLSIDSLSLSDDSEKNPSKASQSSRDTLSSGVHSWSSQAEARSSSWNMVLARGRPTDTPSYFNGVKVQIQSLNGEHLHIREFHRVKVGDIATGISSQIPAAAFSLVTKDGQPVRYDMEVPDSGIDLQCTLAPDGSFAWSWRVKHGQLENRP
SMILES,IC50 [1] [nM],IC50 [2] [nM],Ki [3] [nM]
"CN1CC[C@@](O)(C#Cc2ccc(F)c(-c3cnc(N)c(C(N)=O)n3)c2)C1=O [Example 117, 3-amino-6-[2-fluoro-5-[2-[(3R)-3-hydroxy-1-methyl-2-oxo-pyrrolidin-3-yl]ethynyl]phenyl] pyrazine-2-carboxamide]",12.5,≥ 20000,0.05
"CN1CC[C@@](O)(C#Cc2cc(-c3ccc(N)c(C(N)=O)n3)c(F)cc2F)C1=O [Example 118, 3-amino-6-[2,4-difluoro-5-[2-[(3R)-3-hydroxy-1-methyl-2-oxo-pyrrolidin-3-yl]ethynyl]phenyl]pyridine-2-carboxamide]",19,≥ 2000,0.05
"CCNc1ccc(-c2ccc(C#N)c(C#C[C@]3(O)CCN(C)C3=O)c2)nc1C(N)=O [Example 119, 6-[4-cyano-3-[2-[(3R)-3-hydroxy-1-methyl-2-oxo-pyrrolidin-3-yl]ethynyl]phenyl]-3-(ethylamino) pyridine-2-carboxamide]",108,≥ 2000,0.1
"CN1CC[C@@](O)(C#Cc2cccc(-c3nc(C(N)=O)c(NCc4ccon4)cc3F)c2)C1=O [Example 120, 5-fluoro-6-[3-[2-[(3R)-3-hydroxy-1-methyl-2-oxo-pyrrolidin-3-yl]ethynyl]phenyl]-3-(isoxazol-3-ylmethylamino)pyridine-2-carboxamide]",26.6,≥ 2000,0.33
"CN1CC[C@@](O)(C#Cc2cccc(-c3cc(OC4COC4)cc(C(N)=O)n3)c2)C1=O [Example 122, 6-[3-[2-[(3R)-3-hydroxy-1-methyl-2-oxo-pyrrolidin-3-yl]ethynyl]phenyl]-4-(oxetan-3-yloxy) pyridine-2-carboxamide]",226,≥ 2000,0.81
"Cc1cc(C(N)=O)nc(-c2cccc(C#C[C@]3(O)CCN(C)C3=O)c2)c1 [Example 123, 6-[3-[2-[(3R)-3-hydroxy-1-methyl-2-oxo-pyrrolidin-3-yl]ethynyl]phenyl]-4-methyl-pyridine-2-carboxamide]",79.4,≥ 2000,0.09
"CN1CC[C@@](O)(C#Cc2cccc(-c3cc(N)cc(C(N)=O)n3)c2)C1=O [Example 124, 4-amino-6-[3-[2-[(3R)-3-hydroxy-1-methyl-2-oxo-pyrrolidin-3-yl]ethynyl]phenyl]pyridine-2-carboxamide]",300,≥ 2000,0.05
"Cc1ccnn1-c1cc(C(N)=O)nc(-c2cccc(C#C[C@]3(O)CCN(C)C3=O)c2)c1 [Example 125, 6-[3-[2-[(3R)-3-hydroxy-1-methyl-2-oxo-pyrrolidin-3-yl]ethynyl]phenyl]-4-(5-methylpyrazol-1-yl) pyridine-2-carboxamide]",84.2,≥ 2000,1.29
"Cc1ccc(-c2cc(C(N)=O)nc(-c3cccc(C#C[C@]4(O)CCN(C)C4=O)c3)c2)cn1 [Example 126, 6-[3-[2-[(3R)-3-hydroxy-1-methyl-2-oxo-pyrrolidin-3-yl]ethynyl]phenyl]-4-(6-methyl-3-pyridyl)pyridine-2-carboxamide]",122,≥ 2000,0.05
"CN1CC[C@@](O)(C#Cc2cccc(-c3cc(-c4cnccn4)cc(C(N)=O)n3)c2)C1=O [Example 127, 6-[3-[2-[(3R)-3-hydroxy-1-methyl-2-oxo-pyrrolidin-3-yl]ethynyl]phenyl]-4-pyrazin-2-yl-pyridine-2-carboxamide]",183,≥ 2000,0.08
"COCCNc1ccc(-c2cccc(C#C[C@]3(O)CCN(C)C3=O)c2)nc1C(N)=O [Example 128, 6-[3-[2-[(3R)-3-hydroxy-1-methyl-2-oxo-pyrrolidin-3-yl]ethynyl]phenyl]-3-(2-methoxyethylamino) pyridine-2-carboxamide]",27.2,≥ 2000,0.05
"CN1CC[C@@](O)(C#Cc2cccc(-c3cc(-c4ncccn4)cc(C(N)=O)n3)c2)C1=O [Example 129, 6-[3-[2-[(3R)-3-hydroxy-1-methyl-2-oxo-pyrrolidin-3-yl]ethynyl]phenyl]-4-pyrimidin-2-yl-pyridine-2-carboxamide]",155,≥ 2000,0.3
"Cc1nnc([C@](C)(O)C#Cc2cccc(-c3nc(C(N)=O)c(N)cc3F)c2)o1 [Example 130, 3-amino-5-fluoro-6-[3-[(3R)-3-hydroxy-3-(5-methyl-1,3,4-oxadiazol-2-yl)but-1-ynyl]phenyl]pyridine-2-carboxamide]",≥ 2000,≥ 2000,9.05
"CN1CCC[C@@](O)(C#Cc2cccc(-c3nc(C(N)=O)c(N)cc3F)c2)C1=O [Example 131, 3-amino-5-fluoro-6-[3-[2-[(3R)-3-hydroxy-1-methyl-2-oxo-3-piperidyl]ethynyl]phenyl]pyridine-2-carboxamide]",142,≥ 2000,1.06
"Cc1nc([C@](C)(O)C#Cc2cccc(-c3nc(C(N)=O)c(N)cc3F)c2)no1 [Example 132, 3-amino-5-fluoro-6-[3-[(3R)-3-hydroxy-3-(5-methyl-1,2,4-oxadiazol-3-yl)but-1-ynyl]phenyl]pyridine-2-carboxamide]",≥ 2000,≥ 2000,8.75
"Cc1ccc(-c2cccc(C#C[C@]3(O)CCN(C)C3=O)c2)nc1C(N)=O [Example 133, 6-[3-[2-[(3R)-3-hydroxy-1-methyl-2-oxo-pyrrolidin-3-yl]ethynyl]phenyl]-3-methyl-pyridine-2-carboxamide]",160,≥ 2000,0.18
"COCCNc1ncc(-c2cc(C#C[C@]3(O)CCN(C)C3=O)ccc2F)nc1C(N)=O [Example 134, 6-[2-fluoro-5-[2-[(3R)-3-hydroxy-1-methyl-2-oxo-pyrrolidin-3-yl]ethynyl]phenyl]-3-(2-methoxyethylamino) pyrazine-2-carboxamide]",45.4,≥ 2000,0.09
"CN1CC[C@@](O)(C#Cc2cccc(-c3cc(C(F)(F)F)cc(C(N)=O)n3)c2)C1=O [Example 135, 6-[3-[2-[(3R)-3-hydroxy-1-methyl-2-oxo-pyrrolidin-3-yl]ethynyl]phenyl]-4-(trifluoromethyl) pyridine-2-carboxamide]",147,≥ 2000,0.53
"COc1cc(-c2cccc(C#C[C@]3(O)CCN(C)C3=O)c2)nc(C(N)=O)n1 [Example 136, 4-[3-[2-[(3R)-3-hydroxy-1-methyl-2-oxo-pyrrolidin-3-yl]ethynyl]phenyl]-6-methoxy-pyrimidine-2-carboxamide]",152,≥ 2000,0.5
"Cc1nnc([C@](C)(O)C#Cc2cccc(-c3nc(C(N)=O)cc(-c4ccnn4C)n3)c2)o1 [Example 137, 2-[3-[(3R)-3-hydroxy-3-(5-methyl-1,3,4-oxadiazol-2-yl)but-1-ynyl]phenyl]-6-(2-methylpyrazol-3-yl)pyrimidine-4-carboxamide]",268,≥ 20000,3.68
"Cc1nccn1-c1cc(C(N)=O)nc(-c2cccc(C#C[C@]3(O)CCN(C)C3=O)c2)n1 [Example 141, 2-[3-[2-[(3R)-3-hydroxy-1-methyl-2-oxo-pyrrolidin-3-yl]ethynyl]phenyl]-6-(2-methylimidazol-1-yl) pyrimidine-4-carboxamide]",328,≥ 20000,0.37
"CN1CC[C@@](O)(C#Cc2cccc(-c3ncc(N[C@H]4CCOC4)c(C(N)=O)n3)c2)C1=O [Example 142, 2-[3-[2-[(3R)-3-hydroxy-1-methyl-2-oxo-pyrrolidin-3-yl]ethynyl]phenyl]-5-[[(3S)-tetrahydrofuran-3-yl]amino] pyrimidine-4-carboxamide]",14.8,≥ 20000,0.24
"CN1CC[C@@](O)(C#Cc2cccc(-c3ncc(N[C@@H]4CCOC4)c(C(N)=O)n3)c2)C1=O [Example 143, 2-[3-[2-[(3R)-3-hydroxy-1-methyl-2-oxo-pyrrolidin-3-yl]ethynyl]phenyl]-5-[[(3R)-tetrahydrofuran-3-yl]amino] pyrimidine-4-carboxamide]",8.12,≥ 20000,0.05
"CN1CC[C@@](O)(C#Cc2cccc(-c3cc(-c4ccnn4C)cc(C(N)=O)n3)c2)C1=O [Example 144, 6-[3-[2-[(3R)-3-hydroxy-1-methyl-2-oxo-pyrrolidin-3-yl]ethynyl]phenyl]-4-(2-methylpyrazol-3-yl) pyridine-2-carboxamide]",199,≥ 2000,0.69
"CN1CC[C@@](O)(C#Cc2cccc(-c3ncc(N)c(C(N)=O)n3)c2)C1=O [Example 145, 5-amino-2-[3-[2-[(3R)-3-hydroxy-1-methyl-2-oxo-pyrrolidin-3-yl]ethynyl]phenyl]pyrimidine-4-carboxamide]",38,≥ 2000,0.05
"CN1CC[C@@](O)(C#Cc2cccc(-c3ncc(NCC(F)(F)F)c(C(N)=O)n3)c2)C1=O [Example 146, 2-[3-[2-[(3R)-3-hydroxy-1-methyl-2-oxo-pyrrolidin-3-yl]ethynyl]phenyl]-5-(2,2,2-trifluoroethylamino) pyrimidine-4-carboxamide]",11.6,≥ 20000,0.37
